Reference: US8828674B2, “Functional identification of proteins underlying Icrac activity in a cell” (The Queen's Medical Center, priority 2007, dated 2014)

Experiments:
CRACM1 = CRACM1 (Homo sapiens, UniProt Q96D31); conditions: without STIM1 overexpression
Protocol: (§1) To assess the functional properties of CRACM proteins, all three CRACM species were overexpressed in HEK293 cells. CRAC currents were measured in response to rapid Ca2+ store depletion by 20 μM inositol 1,4,5-trisphosphate (IP3) as well as following passive store depletion by perfusing cells with 20 mM BAPTA, which results in a slower store depletion that relies on Ca2+ leaking from stores. Full length human CRACM1 (accession no. NM_032790) and CRACM1-E106Q were subcloned as described. […] CRACM proteins were over-expressed in HEK293 cells stably expressing STIM1 using lipofectamine 2000 (Invitrogen) and the GFP expressing cells were selected by fluorescence.
(§2) Patch-clamp experiments were performed in the tight-seal whole-cell configuration at 21-25° C. […] Capacitive currents were determined and corrected before each voltage ramp. Extracting the current amplitude at −80 mV from individual ramp current records assessed the low-resolution temporal development of currents. […] In the experiments of FIG. 2, 10 mM EGTA was used and in FIG. 3, [Ca^2+]i was buffered to defined levels using 20 mM Cs-BAPTA and appropriate concentrations of CaCl2 as calculated with WebMaxC. […]

CRACM2 = CRACM2 (Homo sapiens, UniProt Q96SN7); conditions: 50 μM 2-APB
Chain of CRACM2 (Q96SN7 whole entry): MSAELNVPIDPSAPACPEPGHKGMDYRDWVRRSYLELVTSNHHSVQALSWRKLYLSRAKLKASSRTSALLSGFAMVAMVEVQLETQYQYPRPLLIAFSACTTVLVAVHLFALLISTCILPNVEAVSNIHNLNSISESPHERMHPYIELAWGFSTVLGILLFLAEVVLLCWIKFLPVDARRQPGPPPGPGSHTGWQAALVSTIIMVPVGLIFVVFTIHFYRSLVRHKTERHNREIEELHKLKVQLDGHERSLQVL
Protocol: as §1, §2

CRACM3 [1] = target: T1, CRACM3 (Homo sapiens, UniProt Q9BRQ5)
Protocol: as §1, with “described. Full length human CRACM2 (accession no. NM_032831) and CRACM3 (accession no. NM_152288) were amplified from cDNAs (purchased from Origene) using high fidelity Pfu Ultra High Fidelity polymerase (Stratagene) and subcloned into pCAGGS-IRES-GFP vector.” for “described.”
(§3) Patch-clamp experiments were performed in the tight-seal whole-cell configuration at 21-25° C. High-resolution current recordings were acquired using the EPC-9 (HEKA). Voltage ramps of 50 ms duration spanning a range of −150 to +150 mV were delivered from a holding potential of 0 mV at a rate of 0.5 Hz over a period of 100-300 sec. All voltages were corrected for a liquid junction potential of 10 mV. Currents were filtered at 2.9 kHz and digitized at 100 μs intervals. Capacitive currents were determined and corrected before each voltage ramp. Extracting the current amplitude at −80 mV from individual ramp current records assessed the low-resolution temporal development of currents. Where applicable, statistical errors of averaged data are given as means± S.E.M. with n determinations. Standard external solutions were as follows (in mM): 120 NaCl, 2 MgCl2, 10 CaCl2, 10 TEA-Cl, 10 HEPES, 10 glucose, pH 7.2 with NaOH, 300 mOsm. In some experiments, Na^+-free solutions were applied, where NaCl was replaced equimolarly by tetraethylammonium-chloride (TEA-Cl). For Ca^2+-free external solutions CaCl2 was omitted, but Mg^2+ was retained. The divalent-free external solution (DVF) was based on the standard external solution but in the absence of CaCl2 and MgCl2 and additionally supplemented with 10 mM EDTA. Divalent replacement solutions were based on the standard external solution but with 10 mM CaCl2 replaced by 10 mM BaCl2. […] Standard internal solutions were as follows (in mM): 120 Cs-glutamate, 20 Cs-BAPTA, 3 MgCl2, 10 HEPES, 0.02 IP3, pH 7.2 with CsOH, 300 mOsm. In the experiments of FIG. 2, 10 mM EGTA was used and in FIG. 3, [Ca^2+]i was buffered to defined levels using 20 mM Cs-BAPTA and appropriate concentrations of CaCl2 as calculated with WebMaxC. For passive-depletion experiments, IP3 was omitted from the internal solution. All chemicals were purchased from Sigma-Aldrich Co.
Normally, CRAC currents are highly Ca^2+-selective and poorly permeable to K^+ or Cs^+, resulting in positive reversal potentials.
The monovalent versus divalent cation permeation was investigated in ion substitution experiments, where either Ca^2+ was removed from the extracellular solution or Na^+ was replaced by TEA.

CRACM3 [2] = target: T1, CRACM3; remark: listed apart in the source
Protocol: Patch-clamp experiments were performed in the tight-seal whole-cell configuration at 21-25° C. High-resolution current recordings were acquired using the EPC-9 (HEKA). Voltage ramps of 50 ms duration spanning a range of −150 to +150 mV were delivered from a holding potential of 0 mV at a rate of 0.5 Hz over a period of 100-300 sec. All voltages were corrected for a liquid junction potential of 10 mV. Currents were filtered at 2.9 kHz and digitized at 100 μs intervals. Capacitive currents were determined and corrected before each voltage ramp. Extracting the current amplitude at −80 mV from individual ramp current records assessed the low-resolution temporal development of currents. Where applicable, statistical errors of averaged data are given as means± S.E.M. with n determinations. Standard external solutions were as follows (in mM): 120 NaCl, 2 MgCl2, 10 CaCl2, 10 TEA-Cl, 10 HEPES, 10 glucose, pH 7.2 with NaOH, 300 mOsm. In some experiments, Na^+-free solutions were applied, where NaCl was replaced equimolarly by tetraethylammonium-chloride (TEA-Cl). For Ca^2+-free external solutions CaCl2 was omitted, but Mg^2+ was retained. […] In the experiments of FIG. 2, 10 mM EGTA was used and in FIG. 3, [Ca^2+]i was buffered to defined levels using 20 mM Cs-BAPTA and appropriate concentrations of CaCl2 as calculated with WebMaxC. […]

CRACM1-E106D = CRACM1-E106D (Homo sapiens, UniProt Q96D31, E106D)
Chain of CRACM1-E106D (Q96D31 whole entry E106D): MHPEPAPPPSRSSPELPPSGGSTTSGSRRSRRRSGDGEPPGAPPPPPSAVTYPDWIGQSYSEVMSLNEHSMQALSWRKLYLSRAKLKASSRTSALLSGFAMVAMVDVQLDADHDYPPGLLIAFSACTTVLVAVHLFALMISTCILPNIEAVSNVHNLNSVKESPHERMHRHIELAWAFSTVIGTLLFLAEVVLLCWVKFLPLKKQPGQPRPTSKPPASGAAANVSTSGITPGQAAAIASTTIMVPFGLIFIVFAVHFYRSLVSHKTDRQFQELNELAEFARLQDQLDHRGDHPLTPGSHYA
Protocol: as §3

CRACM1-E190A = CRACM1-E190A (Homo sapiens, UniProt Q96D31, E190A)
Chain of CRACM1-E190A (Q96D31 whole entry E190A): as the sequence (Q96D31 whole entry E106D) above, with D106E, E190A counted along it
Protocol: as §3

[3] = 50 μM 2-APB, 0 Ca Sodium Ringer

Chain of CRACM1 (Q96D31 whole entry): as the sequence (Q96D31 whole entry E106D) above, with D106E counted along it

NCCOB(c1ccccc1)c1ccccc1 [2-APB, 2-aminoethoxydiphenyl borate]
Store- and STIM1-independent gating of wild-type CRACM1 by 2-APB (CRACM1): largely resistant | Sensitivity of CRACM2 to 2-APB-mediated inhibition (versus CRACM1) (CRACM2): significantly less sensitive | Change of outward current on 2-APB application in Ca2+-free extracellular solution (CRACM3 [1]; [3]): nearly tripled | Reduction of average inward current on 2-APB application in Ca2+-free extracellular solution versus Ca2+-containing solutions (CRACM3 [1]; [3]): 53% | Reversal potential with 2-APB in Ca2+-free extracellular solution (CRACM3 [1]; 50 μM 2-APB, 0 Ca Sodium Ringer, shift from +94 mV): +10 mV | Effect of replacing extracellular Na+ with TEA+ on inward or outward currents induced by 2-APB (CRACM3 [1]; 50 μM 2-APB, 10 mM Ca TEA Ringer): no significant effect | Reversal potential after 2-APB application, internal K+ (CRACM3 [1]; 50 μM 2-APB, IP3, K+-based internal solution): 29 mV | Average 2-APB-mediated current compared to CRACM3 currents without STIM1 overexpression (CRACM3 [1]; 50 μM 2-APB, STIM1 cells with CRACM3): approximately twice as large | Reversal potential with 2-APB in 10Ca/TEA Ringer (CRACM3 [1]; 50 μM 2-APB, red I/V of FIG. 6G): +30 mV | Permeability ratio PCs/PCs in presence of 2-APB (CRACM3 [1]; Goldman-Hodgkin-Katz analysis, 10Ca/TEA Ringer (red I/V), +30 mV): 50 | Permeability ratio PNs/PCs in presence of 2-APB (CRACM3 [1]; Goldman-Hodgkin-Katz analysis, Ca2+-free conditions, Erev=+10 mV): 1.5 | Permeability ratio PCa/PNa in presence of 2-APB (CRACM3 [1]; Goldman-Hodgkin-Katz analysis, normally in excess of 100-fold): 33 | Current with 2-APB administered intracellularly (CRACM3 [2]; 50 μM 2-APB in pipette solution, [Ca2+]i ~150 nM): no store-operated or 2-APB induced current was elicited | Reversal potential of the 2-APB-evoked CRACM3 current (CRACM3 [2]; 50 μM 2-APB, CRACM3 alone, FIG. 6D): +30 mV | Response of CRACM1-E106D expressed alone to 2-APB (CRACM1-E106D; 50 μM 2-APB, [Ca2+]i 150 nM, no STIM1): rapid increase in inward current, followed by complete block, and a slow reactivation | Reversal potential of the reactivated current after 2-APB (CRACM1-E106D; CRACM1-E106D alone, +16 mV for the mutant without 2-APB): 0 mV | Response of CRACM1-E190A co-expressed with STIM1 to 2-APB (CRACM1-E190A; 50 μM 2-APB after IP3-induced CRAC currents fully activated): large facilitation followed by rapid inhibition | Response of CRACM1-E190A expressed alone, without STIM1, to 2-APB (CRACM1-E190A; 50 μM 2-APB, wild-type HEK293, no IP3, [Ca2+]i ~150 nM): large, transient increase in both inward and outward current | Reversal potential of the 2-APB-facilitated current (CRACM1-E190A; CRACM1-E190A with STIM1, 50 μM 2-APB, +55 mV before 2-APB): +33 mV
